# Values of other authors as cited in patent US5010056A, “Pharmaceutical composition for intranasal administration, comprising GH-releasing hormone, a cholinergic agonist and optionally a bile salt” (priority 1987, dated 1991).
# Read-outs that look alike come from different tables or passages of the source.
# Tests used:
# [1] = orally administered
# GH secretion = conditions: previous administration of an oral dose
compound,measurement,setting,value
CN(C)C(=O)Oc1ccc[n+](C)c1 [pyridostigmine],bioavailability,[1],low
same,effect on GH secretion and on the effect of intravenously injected GHRH,GH secretion,able to stimulate GH secretion and significantly increase the effect of intravenously injected GHRH
GH-releasing hormone [GHRH],bioavailability,nasal administration,low
same,"doses required nasally to obtain comparable effects, relative to parenteral doses",nasal versus parenteral administration,300-1000 times the parenteral doses
